{
  "source": "patent US9039761B2",
  "about": "“Ocular implant delivery assemblies with distal caps” (Allergan, Inc., priority 2006, dated 2015)",
  "origin": "cited, not measured here",
  "conditions": "efficacy in vivo; Goodman and Gilman's 8th Edition p. 1447",
  "data": [
    {"smiles": "C[C@]12CCC(=O)C=C1CC[C@@H]1[C@@H]2[C@@H](O)C[C@@]2(C)[C@H]1CC[C@]2(O)C(=O)CO", "note": "[hydrocortisone]", "values": [
      {"measurement": "potency relative to dexamethasone (fold less potent)", "result": "approximately twenty-five"}
    ]}
  ]
}
